In PubChem BioAssay (NCI):
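How tested: cells in 96-well plates exposed to compound for 48 hours at five concentrations. TGI: concentration producing complete growth inhibition.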

Tests used:
Assay in all cases: DTP human tumour cell line panel, 48 h
HCT-15 colon = tested on: HCT-15 colon
LOX IMVI melanoma = tested on: LOX IMVI melanoma
EKVX NSCLC = tested on: EKVX NSCLC
SN12C renal = tested on: SN12C renal
SNB-75 CNS = tested on: SNB-75 CNS
OVCAR-3 ovarian = tested on: OVCAR-3 ovarian
HCC-2998 colon = tested on: HCC-2998 colon
SNB-19 CNS = tested on: SNB-19 CNS
OVCAR-5 ovarian = tested on: OVCAR-5 ovarian
TK-10 renal = tested on: TK-10 renal
SW-620 colon = tested on: SW-620 colon
A549 NSCLC = tested on: A549 NSCLC
SR leukemia = tested on: SR leukemia
SF-268 CNS = tested on: SF-268 CNS
SNB-78 CNS = tested on: SNB-78 CNS
XF 498 CNS = tested on: XF 498 CNS
BT-549 breast = tested on: BT-549 breast
DMS 273 small cell lung = tested on: DMS 273 small cell lung
HCT-116 colon = tested on: HCT-116 colon
A498 renal = tested on: A498 renal
SK-MEL-5 melanoma = tested on: SK-MEL-5 melanoma
LXFL 529 NSCLC = tested on: LXFL 529 NSCLC
HT29 colon = tested on: HT29 colon
NCI-H226 lung = tested on: NCI-H226 lung
OVCAR-4 ovarian = tested on: OVCAR-4 ovarian
KM20L2 colon = tested on: KM20L2 colon
MDA-N = tested on: MDA-N
DMS 114 small cell lung = tested on: DMS 114 small cell lung
MDA-MB-435 = tested on: MDA-MB-435
NCI-H23 lung = tested on: NCI-H23 lung
U251 CNS = tested on: U251 CNS
K-562 leukemia = tested on: K-562 leukemia
CCRF-CEM leukemia = tested on: CCRF-CEM leukemia
SK-MEL-2 melanoma = tested on: SK-MEL-2 melanoma
UACC-62 melanoma = tested on: UACC-62 melanoma
MDA-MB-231 breast = tested on: MDA-MB-231 breast
CAKI-1 renal = tested on: CAKI-1 renal
SF-539 CNS = tested on: SF-539 CNS
RXF 393 renal = tested on: RXF 393 renal
ACHN renal = tested on: ACHN renal
M19-MEL melanoma = tested on: M19-MEL melanoma
HS 578T breast = tested on: HS 578T breast
786-0 renal = tested on: 786-0 renal
HOP-92 NSCLC = tested on: HOP-92 NSCLC
SK-MEL-28 melanoma = tested on: SK-MEL-28 melanoma
SK-OV-3 ovarian = tested on: SK-OV-3 ovarian
MALME-3M melanoma = tested on: MALME-3M melanoma
DLD-1 colon = tested on: DLD-1 colon
UO-31 renal = tested on: UO-31 renal
HL-60(TB) leukemia = tested on: HL-60(TB) leukemia
OVCAR-8 ovarian = tested on: OVCAR-8 ovarian
MOLT-4 leukemia = tested on: MOLT-4 leukemia
DU-145 prostate = tested on: DU-145 prostate
M14 melanoma = tested on: M14 melanoma
NCI-H460 lung = tested on: NCI-H460 lung
KM12 colon = tested on: KM12 colon
NCI/ADR-RES ovarian = tested on: NCI/ADR-RES ovarian
SF-295 CNS = tested on: SF-295 CNS
NCI-H522 lung = tested on: NCI-H522 lung
HOP-62 NSCLC = tested on: HOP-62 NSCLC
MCF7 breast = tested on: MCF7 breast
T-47D breast = tested on: T-47D breast
UACC-257 melanoma = tested on: UACC-257 melanoma
COLO 205 colon = tested on: COLO 205 colon
IGROV1 ovarian = tested on: IGROV1 ovarian
RPMI-8226 leukemia = tested on: RPMI-8226 leukemia
PC-3 prostate = tested on: PC-3 prostate
HOP-18 NSCLC = tested on: HOP-18 NSCLC

In the case of O=c1c2ccccc2sc2nc(CCl)nn12, the TGI (HCT-15 colon) is reported as 18.7 µM, the TGI (LOX IMVI melanoma) is reported as over 100 µM and the TGI (EKVX NSCLC) is reported as 29.1 µM. It also gave a TGI (SN12C renal) of 29.4 µM, a TGI (SNB-75 CNS) of 55.2 µM and a TGI (OVCAR-3 ovarian) of over 100 µM. The TGI (HCC-2998 colon) was 31.4 µM, the TGI (SNB-19 CNS) was over 100 µM and the TGI (OVCAR-5 ovarian) was over 100 µM. It also gave a TGI (TK-10 renal) of 25.4 µM, a TGI (SW-620 colon) of 45.6 µM and a TGI (A549 NSCLC) of 93 µM. For the same molecule, the TGI (SR leukemia) was 37.7 µM, the TGI (SF-268 CNS) was 60.6 µM and the TGI (SNB-78 CNS) was over 100 µM. For the same molecule, the TGI (XF 498 CNS) was 1.82 µM, the TGI (BT-549 breast) was over 91.6 µM and the TGI (DMS 273 small cell lung) was 22.2 µM. The TGI (HCT-116 colon) was 16.3 µM, the TGI (A498 renal) was 8.42 µM and the TGI (SK-MEL-5 melanoma) was over 100 µM. It also gave a TGI (LXFL 529 NSCLC) of 62.5 µM, a TGI (HT29 colon) of 66 µM and a TGI (NCI-H226 lung) of over 100 µM. For the same molecule, the TGI (OVCAR-4 ovarian) was over 100 µM, the TGI (KM20L2 colon) was 38 µM and the TGI (MDA-N) was 17.3 µM. It also gave a TGI (DMS 114 small cell lung) of 48.6 µM, a TGI (MDA-MB-435) of 29.6 µM and a TGI (NCI-H23 lung) of 28.5 µM. It also gave a TGI (U251 CNS) of over 100 µM, a TGI (K-562 leukemia) of 28.9 µM and a TGI (CCRF-CEM leukemia) of over 100 µM. The TGI (SK-MEL-2 melanoma) was over 100 µM, the TGI (UACC-62 melanoma) was 17 µM and the TGI (MDA-MB-231 breast) was 23.4 µM. It also gave a TGI (CAKI-1 renal) of 22.3 µM, a TGI (SF-539 CNS) of over 80.4 µM and a TGI (RXF 393 renal) of 24.5 µM. The TGI (ACHN renal) was 21.6 µM, the TGI (M19-MEL melanoma) was over 62.8 µM and the TGI (HS 578T breast) was 38.1 µM. The TGI (786-0 renal) was 34.1 µM, the TGI (HOP-92 NSCLC) was 14.8 µM and the TGI (SK-MEL-28 melanoma) was 28.3 µM. It also gave a TGI (SK-OV-3 ovarian) of 37.5 µM, a TGI (MALME-3M melanoma) of 49.4 µM and a TGI (DLD-1 colon) of 21.3 µM. It also gave a TGI (UO-31 renal) of 22.8 µM, a TGI (HL-60(TB) leukemia) of 44.3 µM and a TGI (OVCAR-8 ovarian) of over 100 µM. For the same molecule, the TGI (MOLT-4 leukemia) was over 100 µM, the TGI (DU-145 prostate) was 21.2 µM and the TGI (M14 melanoma) was 60.3 µM. For the same molecule, the TGI (NCI-H460 lung) was 16.5 µM, the TGI (KM12 colon) was over 100 µM and the TGI (NCI/ADR-RES ovarian) was over 100 µM. The TGI (SF-295 CNS) was over 82.9 µM, the TGI (NCI-H522 lung) was 67.8 µM and the TGI (HOP-62 NSCLC) was over 100 µM. The TGI (MCF7 breast) was 36.3 µM, the TGI (T-47D breast) was 19.9 µM and the TGI (UACC-257 melanoma) was 32.9 µM. The TGI (COLO 205 colon) was 30.2 µM, the TGI (IGROV1 ovarian) was 49.5 µM and the TGI (RPMI-8226 leukemia) was over 100 µM. The TGI (PC-3 prostate) was 10.7 µM.
C[C@H](NS(=O)(=O)c1ccc(NC(=O)c2ccccc2)cc1)C(=O)O gave a TGI (HCT-15 colon) of over 100 µM, a TGI (LOX IMVI melanoma) of over 100 µM and a TGI (EKVX NSCLC) of over 100 µM. It also gave a TGI (SN12C renal) of over 100 µM, a TGI (SNB-75 CNS) of over 100 µM and a TGI (OVCAR-3 ovarian) of over 100 µM. The TGI (HCC-2998 colon) was over 100 µM, the TGI (SNB-19 CNS) was over 100 µM and the TGI (OVCAR-5 ovarian) was over 100 µM. For the same molecule, the TGI (TK-10 renal) was over 100 µM, the TGI (SW-620 colon) was over 100 µM and the TGI (A549 NSCLC) was over 100 µM. For the same molecule, the TGI (SF-268 CNS) was over 100 µM, the TGI (XF 498 CNS) was over 100 µM and the TGI (DMS 273 small cell lung) was over 100 µM. It also gave a TGI (A498 renal) of over 100 µM, a TGI (SK-MEL-5 melanoma) of over 100 µM and a TGI (LXFL 529 NSCLC) of over 100 µM. The TGI (HT29 colon) was over 100 µM, the TGI (OVCAR-4 ovarian) was over 100 µM and the TGI (KM20L2 colon) was over 100 µM. The TGI (NCI-H23 lung) was over 100 µM, the TGI (U251 CNS) was over 100 µM and the TGI (K-562 leukemia) was over 100 µM. For the same molecule, the TGI (CCRF-CEM leukemia) was over 100 µM, the TGI (SK-MEL-2 melanoma) was over 100 µM and the TGI (UACC-62 melanoma) was over 100 µM. For the same molecule, the TGI (HOP-18 NSCLC) was over 100 µM, the TGI (CAKI-1 renal) was over 100 µM and the TGI (SF-539 CNS) was over 100 µM. It also gave a TGI (RXF 393 renal) of over 100 µM, a TGI (ACHN renal) of over 100 µM and a TGI (M19-MEL melanoma) of over 100 µM. The TGI (786-0 renal) was over 100 µM, the TGI (HOP-92 NSCLC) was over 100 µM and the TGI (SK-MEL-28 melanoma) was over 100 µM. For the same molecule, the TGI (SK-OV-3 ovarian) was over 100 µM, the TGI (MALME-3M melanoma) was over 100 µM and the TGI (DLD-1 colon) was over 100 µM. It also gave a TGI (UO-31 renal) of over 100 µM, a TGI (HL-60(TB) leukemia) of over 100 µM and a TGI (OVCAR-8 ovarian) of over 100 µM. The TGI (MOLT-4 leukemia) was over 100 µM, the TGI (M14 melanoma) was over 100 µM and the TGI (NCI-H460 lung) was over 100 µM. It also gave a TGI (KM12 colon) of over 100 µM, a TGI (SF-295 CNS) of over 100 µM and a TGI (NCI-H522 lung) of over 100 µM. It also gave a TGI (UACC-257 melanoma) of over 100 µM, a TGI (COLO 205 colon) of over 100 µM and a TGI (IGROV1 ovarian) of over 100 µM. The TGI (RPMI-8226 leukemia) was over 100 µM.
